Data from US5298494A, “Monosaccharides having anti-proliferation and anti-inflammatory activity, compositions and uses thereof” (Greenwich Pharmaceuticals Incorporated, priority 1993, dated 1994).
Like-named read-outs stand apart in the source and are kept apart here.

Legend:
[1] = system: T lymphocytes (normal mouse spleen cells) stimulated with ConA; test: Mouse Spleen Cell ConA Blastogenesis Assay; format: cell-based, mouse (C57Bl/6); conditions: Mus musculus, T-lymphocyte; for inhibition at 0.1 µg/mL: compound 0.1 ug/ml; for inhibition at 1 µg/mL: compound 1 ug/ml; for inhibition at 2.5 µg/mL: compound 2.5 ug/ml; for inhibition at 10 µg/mL: compound 10 ug/ml; for inhibition at 25 µg/mL: compound 25 ug/ml; for inhibition at 100 µg/mL: compound 100 ug/ml
[2] = system: T cell proliferation in mouse spleen cell mixed lymphocyte cultures; test: Mixed Lymphocyte Reaction (MLR) assay; format: cell-based, mouse (Balb/c responder, C57B1/6 stimulator); conditions: for inhibition at 3 µM / inhibition at 10 µM / inhibition at 30 µM / inhibition at 100 µM / inhibition at 300 µM: Mus musculus, Lymphocyte, read-out: % Change From Control, MLR
Description: The pharmacologic assays performed to determine the immunomodulatory effects of the experimental compounds in vitro include the Mixed Lymphocyte Reaction (MLR) and the ConA blastogenesis assay. These assays were used to determine the inhibitory effects of the compounds of the invention on T lymphocyte activation and proliferation. Since inflammation at the cellular level is characterized by T lymphocyte recruitment, activation and proliferation, these assays are appropriate to use as screens for novel compounds having therapeutic potential in the treatment of disorders in which inflammatory mechanisms are involved.
The MLR is a classical assay used to measure T cell function by studying the proliferative response of T cells which are activated in vitro by genetically disparate stimulator cells. This is accomplished by co-culturing spleen cells from two different strains of mice. Splenic T cell proliferation occurs as a result of cellular activation signals generated by the ongoing cellular interactions.
Balb/c mice were euthanised by cervical dislocation and their spleens removed. Single cell suspensions of the spleens were prepared in culture medium (hepes buffered RPMI-1640 supplemented with 10% fetal calf serum, 2mM glutamine, 500 units penicillin/ streptomycin, and 4×10^-5 M 2-mercaptoethanol) using a Teflon pestle. The cells were centrifuged at 1500 rpm and the pellets resuspended in ACT (0.15M tris, 0.14M ammonium chloride, pH 7.2) in order to lyse the red blood cells. After a 5 minute incubation in a 37 C. waterbath, the cells were resuspended in culture medium and counted. C57B1/6 spleen cells which were used as stimulator cells, were also prepared by this method. The stimulator cells were treated with 100 ug/ml of mitomycin c for 1 hour at 37 C. (to inhibit stimulatory cell proliferation) and were then washed 5 times in culture medium. The proliferative responses were measured by culturing 2.5×10^5 responder cells with 5×10^5 stimulatory cells in 96 well microtiter plates in the presence or absence of various doses of test compounds or vehicle (DMSO). Syngeneic control cultures using mitomycin c treated Balb/c spleen cells as stimulator cells were also run. All cultures were run in triplicate.
Solutions of compounds of the present invention in DMSO were prepared at a stock concentration of 120 Mm. Dilutions were made in culture medium to the following concentrations: 3, 10, 30, 100, and 300 uM. The vehicle (DMSO) was used as a negative control.
After incubation of for 5 days at 37 C. with 5% CO2, the amount of cell proliferation was measured by adding 20 ul of MTT (3-[4,5-dimethylthiazol-2-yl]-2,5diphenyl-tetrazolium bromide) (10 mg/ml in phosphate buffered saline) to each well. Plates were incubated for 4 hours at 37 C., after which 180 ul of 10% sodium dodecyl sulphate in phosphate buffered saline was added. After an overnight incubation, the optical density (OD) of each well was read on a Molecular Devices microplate reader at 570-650 nm. The results were determined by calculating the difference between the means of the allogeneic cultures and the means of the syngenic cultures for each test article concentration. Differences of the test article groups were compared to the control group and the percent change from the control was determined.

[3] = system: Interleukin 1 (IL-1) production by peritoneal macrophages; test: IL-1 Assay: production of interleukin-1 by peritoneal macrophages (thymocyte bioassay); format: cell-based, mouse (C57B1/6); set-up: inhibition: dose or concentration left out as unconfirmed
Description: Interleukin 1 (IL-1) is a potent immunomodulatory cytokine that has a broad range of pro-inflammatory activities. IL-1 is known to be produced by activated accessory cells such as macrophages. Accessory cell production of IL-1 results in the activation and proliferation of T and B lymphocytes. Therefore, by inhibiting macrophage activation and production of IL-1, the activation and proliferation of the cellular effectors of inflammation can be modulated. Compounds of the invention were screened for inhibitory activity in a classical IL-1 assay. Six to 8 week old male C57B1/6 mice were purchased from Harlan Sprague Dawley. Peritoneal macrophages were elicited by the administration to mice of a single intraperitoneal injection of 0.2 ml of complete Freund's adjuvant. After 48 hours, elicited macrophages were removed from the mice by lavage with the use of Hank's balanced salt solution. […] To the macrophage cultures were added various doses of the compounds of the invention and 10 ug/ml of the macrophage activator lipopolysaccharide (to stimulate IL-1 production). Control cultures consisted of macrophages, lipopolysaccharide and culture medium containing various doses of DMSO only. […] The amount of IL-1 produced in the individual wells was determined in a bioassay for IL-1. This involved the removal of thymuses from mice less than 8 weeks of age. Thymocytes were isolated by passing each thymus through a stainless steel mesh screen. […] After 18 hours cells were harvested and radioactive incorporation (as a measure of cell proliferation) was quantitated in a liquid scintillation counter. The students t test was used to determine the significance of the difference between experimental and control values.

[4] = ConA 1 ug/ml, 0.01 ug/ml, read-out: % Change from Control (Table II)
[5] = ConA 1 ug/ml, compound 0.01 ug/ml, read-out: % change from control, ConA blastogenic response
[6] = ConA 1 ug/ml, read-out: % change from control, ConA blastogenic response
[7] = ConA 4 ug/ml, 0.01 ug/ml, read-out: % Change from Control (Table II)
[8] = ConA 4 ug/ml, compound 0.01 ug/ml, read-out: % change from control, ConA blastogenic response
[9] = ConA 4 ug/ml, read-out: % change from control, ConA blastogenic response

`CCCCCCCO[C@@H]1[C@@H](CO)O[C@@]2(OC)COC(C)(C)O[C@@H]12` [Ic, methyl 1,3-O-isopropylidene-4-O-heptyl-α-D-fructofuranoside] gave an inhibition at 0.01 µg/mL [1, 4] of -11%, an inhibition at 0.01 µg/mL [1, 5] of -8% and an inhibition at 0.1 µg/mL [1, 6] of 3%. It also gave an inhibition at 1 µg/mL [1, 6] of 19%, an inhibition at 2.5 µg/mL [1, 6] of 21% and an inhibition at 10 µg/mL [1, 6] of 79%. For the same compound, the inhibition at 25 µg/mL [1, 6] was 99%, the inhibition at 100 µg/mL [1, 6] was 100% and the inhibition at 0.01 µg/mL [1, 7] was 8%. For the same compound, the inhibition at 0.01 µg/mL [1, 8] was -14%, the inhibition at 0.1 µg/mL [1, 9] was 8% and the inhibition at 1 µg/mL [1, 9] was 35%. The inhibition at 2.5 µg/mL [1, 9] was 51%, the inhibition at 10 µg/mL [1, 9] was 91% and the inhibition at 25 µg/mL [1, 9] was 99%. For the same compound, the inhibition at 100 µg/mL [1, 9] was 100%, the “Mean O.D. Allogenic” value ([2]; 3 um) was 0.207 O.D and the “Mean O.D. Syngeneic” value ([2]; 3 um) was 0.096 O.D. The “Mean O.D. Allogenic” value ([2]; 10 um) was 0.198 O.D, the “Mean O.D. Syngeneic” value ([2]; 10 um) was 0.106 O.D and the “Mean O.D. Allogenic” value ([2]; 30 um) was 0.200 O.D. For the same compound, the “Mean O.D. Syngeneic” value ([2]; 30 um) was 0.148 O.D, the “Mean O.D. Allogenic” value ([2]; 100 um) was 0.163 O.D and the “Mean O.D. Syngeneic” value ([2]; 100 um) was 0.077 O.D. For the same compound, the “Mean O.D. Allogenic” value ([2]; 300 um) was 0.034 O.D, the “Mean O.D. Syngeneic” value ([2]; 300 um) was 0.159 O.D and the inhibition at 3 µM ([2]; 3 um) was -34%. The inhibition at 10 µM ([2]; 10 um) was -11%, the inhibition at 30 µM ([2]; 30 um) was 37% and the inhibition at 100 µM ([2]; 100 um) was -4%. It also gave an inhibition at 300 µM ([2]; 300 um) of 251%.

Compound `CCCCCC#CCOC[C@H]1O[C@@]2(OC)COC(C)(C)O[C@H]2[C@@H]1OCC#CCCCCC` [Id, methyl 1,3-O-isopropylidene-4,6-di-O-(2-octynyl)-α-D-fructofuranoside] has an inhibition at 0.01 µg/mL [1, 4] of 9%, an inhibition at 0.01 µg/mL [1, 5] of 10% and an inhibition at 0.1 µg/mL [1, 6] of 25%. The inhibition at 1 µg/mL [1, 6] was 67%, the inhibition at 2.5 µg/mL [1, 6] was 91% and the inhibition at 10 µg/mL [1, 6] was 100%. For the same compound, the inhibition at 25 µg/mL [1, 6] was 100%, the inhibition at 100 µg/mL [1, 6] was 99% and the inhibition at 0.01 µg/mL [1, 7] was 16%. The inhibition at 0.01 µg/mL [1, 8] was 14%, the inhibition at 0.1 µg/mL [1, 9] was 27% and the inhibition at 1 µg/mL [1, 9] was 75%. It also gave an inhibition at 2.5 µg/mL [1, 9] of 94%, an inhibition at 10 µg/mL [1, 9] of 100% and an inhibition at 25 µg/mL [1, 9] of 100%. For the same compound, the inhibition at 100 µg/mL [1, 9] was 99%, the “^3 H-Thymidine uptake by thymocytes” value ([3]; 0.001 ug/ml) was 10,850 ± 995 cpm and the “^3 H-Thymidine uptake by thymocytes” value ([3]; 0.01 ug/ml) was 13,080 cpm. For the same compound, the “^3 H-Thymidine uptake by thymocytes” value ([3]; 0.1 ug/ml) was 13,190 ± 560 cpm, the “^3 H-Thymidine uptake by thymocytes” value ([3]; 1 ug/ml) was 9,880 ± 1,029 cpm and the “^3 H-Thymidine uptake by thymocytes” value ([3]; 2.5 ug/ml) was 6,400 ± 1,070 cpm. For the same compound, the “^3 H-Thymidine uptake by thymocytes” value ([3]; 10 ug/ml) was 3,050 ± 191 cpm, the “^3 H-Thymidine uptake by thymocytes” value ([3]; 25 ug/ml) was 2,537 ± 182 cpm and the “^3 H-Thymidine uptake by thymocytes” value ([3]; 100 ug/ml) was 1,930 cpm. The inhibition at 0.001 µg/mL ([3]; Mus musculus, Peritoneal macrophage, 0.001 ug/ml, read-out: % effect on IL-1 production (thymidine uptake by thymocytes)) was 0%, the inhibition at 0.01 µg/mL ([3]; Mus musculus, Peritoneal macrophage, 0.01 ug/ml, read-out: % effect on IL-1 production (thymidine uptake by thymocytes)) was -20% and the inhibition at 0.1 µg/mL ([3]; Mus musculus, Peritoneal macrophage, 0.1 ug/ml, read-out: % effect on IL-1 production (thymidine uptake by thymocytes)) was -19%. For the same compound, the inhibition at 2.5 µg/mL ([3]; Mus musculus, Peritoneal macrophage, 2.5 ug/ml, read-out: % effect on IL-1 production (thymidine uptake by thymocytes)) was 44%, the inhibition at 10 µg/mL ([3]; Mus musculus, Peritoneal macrophage, 10 ug/ml, read-out: % effect on IL-1 production (thymidine uptake by thymocytes)) was 70% and the inhibition at 25 µg/mL ([3]; Mus musculus, Peritoneal macrophage, 25 ug/ml, read-out: % effect on IL-1 production (thymidine uptake by thymocytes)) was 71%. The inhibition at 100 µg/mL ([3]; Mus musculus, Peritoneal macrophage, 100 ug/ml, read-out: % effect on IL-1 production (thymidine uptake by thymocytes)) was 78% and the inhibition ([3]; Mus musculus, Peritoneal macrophage, read-out: % effect on IL-1 production (thymidine uptake by thymocytes)) was 10%.

`CCCCCCCOC[C@H]1O[C@](COCC)(OC)[C@@H](OCC)[C@@H]1O` [Ib, methyl 1,3-di-O-ethyl-6-O-heptyl-α-D-fructofuranoside] showed an inhibition at 0.01 µg/mL [1, 4] of 55%, an inhibition at 0.01 µg/mL [1, 5] of 57% and an inhibition at 0.1 µg/mL [1, 6] of 66%. For the same compound, the inhibition at 1 µg/mL [1, 6] was 72%, the inhibition at 2.5 µg/mL [1, 6] was 92% and the inhibition at 10 µg/mL [1, 6] was 96%. The inhibition at 25 µg/mL [1, 6] was 97%, the inhibition at 100 µg/mL [1, 6] was 99% and the inhibition at 0.01 µg/mL [1, 7] was 25%. The inhibition at 0.01 µg/mL [1, 8] was 35%, the inhibition at 0.1 µg/mL [1, 9] was 45% and the inhibition at 1 µg/mL [1, 9] was 67%. The inhibition at 2.5 µg/mL [1, 9] was 68%, the inhibition at 10 µg/mL [1, 9] was 76% and the inhibition at 25 µg/mL [1, 9] was 86%. The inhibition at 100 µg/mL [1, 9] was 99%, the “Mean O.D. Allogenic” value ([2]; 3 um) was 0.319 O.D and the “Mean O.D. Syngeneic” value ([2]; 3 um) was 0.162 O.D. The “Mean O.D. Allogenic” value ([2]; 10 um) was 0.382 O.D, the “Mean O.D. Syngeneic” value ([2]; 10 um) was 0.194 O.D and the “Mean O.D. Allogenic” value ([2]; 30 um) was 0.372 O.D. For the same compound, the “Mean O.D. Syngeneic” value ([2]; 30 um) was 0.185 O.D, the “Mean O.D. Allogenic” value ([2]; 100 um) was 0.353 O.D and the “Mean O.D. Syngeneic” value ([2]; 100 um) was 0.223 O.D. The “Mean O.D. Allogenic” value ([2]; 300 um) was 0.265 O.D, the “Mean O.D. Syngeneic” value ([2]; 300 um) was 0.189 O.D and the inhibition at 3 µM ([2]; 3 um) was 18%. It also gave an inhibition at 10 µM ([2]; 10 um) of 2%, an inhibition at 30 µM ([2]; 30 um) of 3% and an inhibition at 100 µM ([2]; 100 um) of 32%. The inhibition at 300 µM ([2]; 300 um) was 60%.
